Experimental data: ChEMBL document CHEMBL5528076, “Development of Selective Pyrido[2,3-d]pyrimidin-7(8H)-one-Based Mammalian STE20-Like (MST3/4) Kinase Inhibitors” (J Med Chem, 2024)
Activity calls are given as the source filed them. The calls are words filed in the database; no cut-off is given here.

How the values were obtained:
HCT-116 [1] = assay: Antiproliferative activity against human HCT-116 cells assessed as reduction in cell viability at 10 uM incubated for 6 to 72 hrs by Hoechst33342 staining based analysis; type: functional; conditions: time 6-72 hrs
HCT-116 [2] = assay: Induction of cell cycle arrest in human HCT-116 cells assessed as accumulation of cells at G2/M phase incubated for 72 hrs by FUCCI based analysis; type: functional; conditions: dose 10.0 µM
HCT-116 [3] = assay: Induction of apoptosis in human HCT-116 cells assessed as increase in cell count at 10 uM incubated for 48 hrs by Hoechst33342 staining based analysis; type: functional
HCT-116 [4] = assay: Induction of cell cycle arrest in human HCT-116 cells assessed as accumulation of cells at G1 phase at 10 uM incubated for 72 hrs by FUCCI based analysis; type: functional
[5] = biological target: Serine/threonine-protein kinase SIK2 (Homo sapiens, UniProt Q9H0K1); assay: Inhibition of SIK2 (unknown origin) expressed in HEK293T cells using NanoGlo as substrate incubated for 20 hrs by NanoBRET assay; type: cell-based
[6] = biological target: T1, Serine/threonine-protein kinase 24 (Homo sapiens, UniProt Q9Y6E0); assay: Inhibition of MST3 (unknown origin) expressed in lysed HEK293T cells using NanoGlo as substrate incubated for 20 hrs by NanoBRET assay; type: cell-based
Target sequence in this assay (Q9Y6E0 whole entry): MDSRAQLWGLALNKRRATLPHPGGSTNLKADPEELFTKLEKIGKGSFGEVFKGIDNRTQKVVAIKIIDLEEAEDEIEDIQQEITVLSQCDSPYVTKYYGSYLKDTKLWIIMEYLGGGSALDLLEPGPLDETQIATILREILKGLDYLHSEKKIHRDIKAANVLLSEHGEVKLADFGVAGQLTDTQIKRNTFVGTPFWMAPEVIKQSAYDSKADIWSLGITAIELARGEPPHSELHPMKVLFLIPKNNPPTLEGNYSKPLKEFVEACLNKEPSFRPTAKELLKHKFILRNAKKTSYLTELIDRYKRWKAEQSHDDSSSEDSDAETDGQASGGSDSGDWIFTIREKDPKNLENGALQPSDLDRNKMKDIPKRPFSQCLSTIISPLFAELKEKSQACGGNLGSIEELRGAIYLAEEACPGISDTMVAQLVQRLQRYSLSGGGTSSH

[7] = biological target: T1, Serine/threonine-protein kinase 24; assay: Inhibition of MST3 (unknown origin) expressed in intact HEK293T cells using NanoGlo as substrate incubated for 20 hrs by NanoBRET assay; type: cell-based
Target sequence in this assay (Q9Y6E0 whole entry): as above

[8] = biological target: Serine/threonine-protein kinase PAK 1 (Homo sapiens) (UniProt Q13153); assay: Binding affinity to recombinant PAK1 (unknown origin) assessed as change in melting temperature by DSF analysis
[9] = biological target: T2, Serine/threonine-protein kinase 3 (Homo sapiens, UniProt Q13188); assay: Inhibition of MST2 (unknown origin) expressed in HEK293T cells using NanoGlo as substrate incubated for 20 hrs by NanoBRET assay; type: cell-based
T2 sequence (Q13188 whole entry): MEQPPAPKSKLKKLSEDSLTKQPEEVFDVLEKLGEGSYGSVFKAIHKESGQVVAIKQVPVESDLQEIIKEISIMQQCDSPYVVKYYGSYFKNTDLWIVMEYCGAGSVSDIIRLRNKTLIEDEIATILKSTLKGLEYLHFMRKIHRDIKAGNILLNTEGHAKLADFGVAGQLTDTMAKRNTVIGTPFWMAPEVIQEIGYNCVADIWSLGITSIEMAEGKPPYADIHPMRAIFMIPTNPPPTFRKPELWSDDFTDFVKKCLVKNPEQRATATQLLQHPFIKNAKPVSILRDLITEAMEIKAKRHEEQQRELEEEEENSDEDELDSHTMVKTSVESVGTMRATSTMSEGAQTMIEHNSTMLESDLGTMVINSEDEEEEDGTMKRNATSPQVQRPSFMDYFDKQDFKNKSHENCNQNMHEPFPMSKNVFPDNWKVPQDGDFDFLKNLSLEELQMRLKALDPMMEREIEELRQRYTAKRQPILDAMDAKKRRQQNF

HCT-116 [10] = assay: Antiproliferative activity against human HCT-116 cells assessed as reduction in cell viability at 10 uM incubated for 48 hrs by Hoechst33342 staining based analysis; type: functional
HCT-116 [11] = assay: Induction of apoptosis in human HCT-116 cells assessed as effect on cell count at 1 uM incubated for 72 hrs by Hoechst33342 staining based analysis; type: functional
[12] = biological target: T3, Serine/threonine-protein kinase 4 (Homo sapiens, UniProt Q13043); assay: Inhibition of MST1 (unknown origin) expressed in HEK293T cells using NanoGlo as substrate incubated for 20 hrs by NanoBRET assay; type: cell-based
T3 sequence (Q13043 whole entry): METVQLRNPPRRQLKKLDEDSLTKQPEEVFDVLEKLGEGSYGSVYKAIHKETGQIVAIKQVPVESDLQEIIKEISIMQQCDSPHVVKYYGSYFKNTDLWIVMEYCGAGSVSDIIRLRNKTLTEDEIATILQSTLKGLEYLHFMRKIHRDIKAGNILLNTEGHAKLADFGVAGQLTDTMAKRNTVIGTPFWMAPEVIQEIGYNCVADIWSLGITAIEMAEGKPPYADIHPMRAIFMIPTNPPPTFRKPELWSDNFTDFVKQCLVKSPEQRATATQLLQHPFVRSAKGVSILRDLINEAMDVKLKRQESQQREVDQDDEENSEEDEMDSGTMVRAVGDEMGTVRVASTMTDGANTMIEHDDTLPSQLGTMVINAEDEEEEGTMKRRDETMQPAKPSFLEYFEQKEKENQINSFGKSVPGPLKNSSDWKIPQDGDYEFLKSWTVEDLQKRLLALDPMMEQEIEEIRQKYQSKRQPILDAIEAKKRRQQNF

[13] = biological target: T1, Serine/threonine-protein kinase 24; assay: Binding affinity to recombinant MST3 (unknown origin) assessed as change in melting temperature by DSF analysis
Target sequence in this assay (Q9Y6E0 whole entry, looked up): as the sequence (Q9Y6E0 whole entry) above

[14] = biological target: T4, Serine/threonine-protein kinase 4 (Homo sapiens) (UniProt Q13043); assay: Binding affinity to recombinant MST1 (unknown origin) assessed as change in melting temperature by DSF analysis
T4 sequence (whole entry): T3 sequence (Q13043 whole entry)

[15] = biological target: T5, Serine/threonine-protein kinase 26 (Homo sapiens, UniProt Q9P289); assay: Inhibition of MST4 (unknown origin) expressed in HEK293T cells using NanoGlo as substrate incubated for 20 hrs by NanoBRET assay; type: cell-based
Target sequence in this assay (Q9P289 whole entry): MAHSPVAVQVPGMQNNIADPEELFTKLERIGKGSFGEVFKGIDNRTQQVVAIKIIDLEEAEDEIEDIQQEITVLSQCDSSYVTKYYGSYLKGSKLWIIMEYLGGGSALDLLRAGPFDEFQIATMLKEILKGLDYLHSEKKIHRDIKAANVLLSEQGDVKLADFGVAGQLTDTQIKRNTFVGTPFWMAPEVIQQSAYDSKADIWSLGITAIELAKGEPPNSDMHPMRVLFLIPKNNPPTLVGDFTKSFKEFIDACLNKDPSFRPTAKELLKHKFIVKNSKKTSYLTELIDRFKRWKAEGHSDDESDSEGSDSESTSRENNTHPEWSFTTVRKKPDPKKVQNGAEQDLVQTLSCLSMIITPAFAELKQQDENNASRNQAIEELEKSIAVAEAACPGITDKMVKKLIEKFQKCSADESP

[16] = biological target: T5, Serine/threonine-protein kinase 26; assay: Binding affinity to recombinant MST4 (unknown origin) assessed as change in melting temperature by DSF analysis
Target sequence in this assay (Q9P289 2-416 limits assumed): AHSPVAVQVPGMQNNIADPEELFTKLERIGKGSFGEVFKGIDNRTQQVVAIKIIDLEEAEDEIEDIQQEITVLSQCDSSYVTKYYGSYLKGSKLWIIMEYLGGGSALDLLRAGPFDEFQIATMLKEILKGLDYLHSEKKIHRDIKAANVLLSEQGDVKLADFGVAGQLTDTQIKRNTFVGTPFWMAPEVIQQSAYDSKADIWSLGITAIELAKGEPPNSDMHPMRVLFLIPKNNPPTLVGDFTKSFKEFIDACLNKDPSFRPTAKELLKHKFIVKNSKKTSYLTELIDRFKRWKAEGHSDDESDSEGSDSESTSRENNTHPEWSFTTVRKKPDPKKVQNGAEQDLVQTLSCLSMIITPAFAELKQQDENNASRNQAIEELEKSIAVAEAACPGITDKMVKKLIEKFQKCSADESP

[17] = biological target: T6, Serine/threonine-protein kinase 3 (Homo sapiens) (UniProt Q13188); assay: Binding affinity to recombinant MST2 (unknown origin) assessed as change in melting temperature by DSF analysis
T6 sequence (whole entry): T2 sequence (Q13188 whole entry)

HCT-116 [18] = assay: Induction of apoptosis in human HCT-116 cells assessed as increase in fluorescence intensity at 10 uM incubated for 24 hrs by Hoechst33342 staining based analysis; type: functional, cell-based
HCT-116 [19] = assay: Induction of apoptosis in human HCT-116 cells assessed as effect on cell count at 10 uM incubated for 72 hrs by Hoechst33342 staining based analysis; type: functional
[20] = biological target: Casein kinase I isoform epsilon (Homo sapiens, UniProt P49674); assay: Inhibition of CK1e (unknown origin) expressed in HEK293T cells using NanoGlo as substrate incubated for 20 hrs by NanoBRET assay; type: cell-based
[21] = biological target: Tyrosine-protein kinase Fes/Fps (Homo sapiens, UniProt P07332); assay: Inhibition of FES (unknown origin) expressed in HEK293T cells using NanoGlo as substrate incubated for 20 hrs by NanoBRET assay; type: cell-based
HCT-116 [22] = assay: Antiproliferative activity against human HCT-116 cells assessed as reduction in cell viability at 1 to 10 uM incubated for 24 hrs by Hoechst33342 staining based analysis; type: functional; conditions: dose 1-10 µM
[23] = biological target: T7, Serine/threonine-protein kinase Nek2 (Homo sapiens, UniProt P51955); assay: Inhibition of NEK2 (unknown origin) expressed in HEK293T cells using NanoGlo as substrate incubated for 20 hrs by NanoBRET assay; type: cell-based
T7 sequence (P51955 whole entry): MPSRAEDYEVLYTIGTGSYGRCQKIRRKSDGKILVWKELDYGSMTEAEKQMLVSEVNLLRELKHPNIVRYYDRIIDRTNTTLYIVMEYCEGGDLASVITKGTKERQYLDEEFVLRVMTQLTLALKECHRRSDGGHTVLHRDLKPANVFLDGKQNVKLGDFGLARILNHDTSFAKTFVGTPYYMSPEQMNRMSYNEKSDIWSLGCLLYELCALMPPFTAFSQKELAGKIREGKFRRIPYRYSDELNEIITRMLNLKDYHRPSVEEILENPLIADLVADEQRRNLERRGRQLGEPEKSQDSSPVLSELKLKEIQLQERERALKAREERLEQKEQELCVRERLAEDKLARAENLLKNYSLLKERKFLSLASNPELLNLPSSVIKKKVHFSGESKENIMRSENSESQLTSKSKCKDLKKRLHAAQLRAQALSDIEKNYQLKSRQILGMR

[24] = Microsomal stability in Sprague-Dawley rat liver microsome incubated for 1 hr by HPLC analysis; type: ADME; conditions: liver microsomes, read-out: Stability
[25] = biological target: T1, Serine/threonine-protein kinase 24; assay: Inhibition of MST3 (unknown origin)
Target sequence in this assay (Q9Y6E0 whole entry): as the sequence (Q9Y6E0 whole entry) above

[26] = biological target: T5, Serine/threonine-protein kinase 26; assay: Inhibition of MST4 (unknown origin)
Target sequence in this assay (Q9P289 whole entry): as the sequence (Q9P289 whole entry) above

[27] = biological target: T2, Serine/threonine-protein kinase 3
[28] = biological target: T3, Serine/threonine-protein kinase 4
[29] = biological target: T1, Serine/threonine-protein kinase 24; assay: Inhibition of MST3 (unknown origin) expressed in HEK293T cells using NanoGlo as substrate incubated for 20 hrs by NanoBRET assay; type: cell-based
Target sequence in this assay (Q9Y6E0 whole entry): as the sequence (Q9Y6E0 whole entry) above

Sequence of Serine/threonine-protein kinase SIK2 (Q9H0K1 whole entry): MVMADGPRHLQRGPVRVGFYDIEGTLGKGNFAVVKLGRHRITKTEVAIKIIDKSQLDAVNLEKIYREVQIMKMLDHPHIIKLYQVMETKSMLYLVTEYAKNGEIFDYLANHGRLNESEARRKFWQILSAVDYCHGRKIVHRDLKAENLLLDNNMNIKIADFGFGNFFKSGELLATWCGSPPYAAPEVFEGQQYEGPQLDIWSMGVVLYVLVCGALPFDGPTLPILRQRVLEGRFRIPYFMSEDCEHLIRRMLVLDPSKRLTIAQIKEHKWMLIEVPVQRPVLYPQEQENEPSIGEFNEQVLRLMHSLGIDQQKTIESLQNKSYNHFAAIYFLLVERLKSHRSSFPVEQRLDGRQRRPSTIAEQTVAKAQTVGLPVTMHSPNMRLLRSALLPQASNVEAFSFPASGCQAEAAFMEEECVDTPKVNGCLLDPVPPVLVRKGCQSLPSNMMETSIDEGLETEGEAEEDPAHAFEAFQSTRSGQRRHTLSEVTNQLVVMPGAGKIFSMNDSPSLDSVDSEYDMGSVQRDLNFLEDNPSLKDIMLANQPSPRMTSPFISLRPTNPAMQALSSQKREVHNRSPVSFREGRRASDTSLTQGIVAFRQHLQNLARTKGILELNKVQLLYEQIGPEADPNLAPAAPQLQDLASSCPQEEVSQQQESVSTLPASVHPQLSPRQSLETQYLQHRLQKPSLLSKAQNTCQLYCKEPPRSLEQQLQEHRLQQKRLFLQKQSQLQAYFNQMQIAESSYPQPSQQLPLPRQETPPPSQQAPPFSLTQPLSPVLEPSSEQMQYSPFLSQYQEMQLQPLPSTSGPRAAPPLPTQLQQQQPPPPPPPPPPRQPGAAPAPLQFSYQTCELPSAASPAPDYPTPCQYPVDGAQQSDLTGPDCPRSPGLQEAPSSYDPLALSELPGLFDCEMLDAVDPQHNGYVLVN
Sequence of Serine/threonine-protein kinase PAK 1 (Homo sapiens) (Q13153 whole entry): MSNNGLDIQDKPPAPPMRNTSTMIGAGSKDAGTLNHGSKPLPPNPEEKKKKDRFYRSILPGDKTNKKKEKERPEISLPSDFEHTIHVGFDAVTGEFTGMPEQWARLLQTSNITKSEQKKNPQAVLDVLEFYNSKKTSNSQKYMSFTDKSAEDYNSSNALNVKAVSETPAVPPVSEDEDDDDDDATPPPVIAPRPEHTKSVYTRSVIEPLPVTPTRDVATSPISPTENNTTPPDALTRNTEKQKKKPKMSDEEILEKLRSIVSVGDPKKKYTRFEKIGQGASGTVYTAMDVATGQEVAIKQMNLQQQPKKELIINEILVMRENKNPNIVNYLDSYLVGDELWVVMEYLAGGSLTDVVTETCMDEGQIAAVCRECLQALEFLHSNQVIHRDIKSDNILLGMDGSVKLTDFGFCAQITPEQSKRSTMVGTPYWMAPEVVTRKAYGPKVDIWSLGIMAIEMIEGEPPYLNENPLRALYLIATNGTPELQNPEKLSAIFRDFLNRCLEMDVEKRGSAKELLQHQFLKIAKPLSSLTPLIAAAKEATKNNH
Sequence of Casein kinase I isoform epsilon (P49674 whole entry, canonical isoform): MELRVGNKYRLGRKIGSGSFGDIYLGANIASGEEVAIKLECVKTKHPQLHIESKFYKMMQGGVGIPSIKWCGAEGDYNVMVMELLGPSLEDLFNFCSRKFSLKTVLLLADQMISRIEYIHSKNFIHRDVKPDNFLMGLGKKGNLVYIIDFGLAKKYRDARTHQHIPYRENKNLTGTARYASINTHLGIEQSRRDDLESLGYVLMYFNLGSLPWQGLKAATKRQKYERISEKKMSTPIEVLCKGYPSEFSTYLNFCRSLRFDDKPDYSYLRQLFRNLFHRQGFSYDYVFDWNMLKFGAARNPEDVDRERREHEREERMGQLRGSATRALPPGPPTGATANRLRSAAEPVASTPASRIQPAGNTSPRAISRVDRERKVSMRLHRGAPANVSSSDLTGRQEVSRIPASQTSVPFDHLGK
Sequence of Tyrosine-protein kinase Fes/Fps (P07332 whole entry): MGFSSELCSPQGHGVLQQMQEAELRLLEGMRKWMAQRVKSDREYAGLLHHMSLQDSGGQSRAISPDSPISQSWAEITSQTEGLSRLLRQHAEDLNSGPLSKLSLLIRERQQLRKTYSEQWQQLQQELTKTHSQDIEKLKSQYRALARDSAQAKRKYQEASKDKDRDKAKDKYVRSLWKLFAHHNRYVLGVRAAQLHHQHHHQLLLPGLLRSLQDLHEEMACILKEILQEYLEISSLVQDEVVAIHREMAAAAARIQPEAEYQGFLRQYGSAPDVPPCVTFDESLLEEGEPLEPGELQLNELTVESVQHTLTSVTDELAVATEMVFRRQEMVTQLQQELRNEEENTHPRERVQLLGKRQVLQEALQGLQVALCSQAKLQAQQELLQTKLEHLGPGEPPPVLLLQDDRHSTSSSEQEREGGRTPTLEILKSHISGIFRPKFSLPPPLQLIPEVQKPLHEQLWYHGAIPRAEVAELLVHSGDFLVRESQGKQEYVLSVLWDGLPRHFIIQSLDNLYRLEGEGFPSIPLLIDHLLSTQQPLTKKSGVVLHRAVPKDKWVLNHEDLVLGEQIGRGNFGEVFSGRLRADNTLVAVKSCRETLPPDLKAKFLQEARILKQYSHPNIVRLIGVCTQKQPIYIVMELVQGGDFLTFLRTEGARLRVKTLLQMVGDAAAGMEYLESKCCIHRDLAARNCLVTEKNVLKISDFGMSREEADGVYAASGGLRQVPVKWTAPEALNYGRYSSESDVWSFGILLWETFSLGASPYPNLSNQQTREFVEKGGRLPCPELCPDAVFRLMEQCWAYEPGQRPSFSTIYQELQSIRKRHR

| EC50 [5] [nM] | EC50 [6] [nM] | EC50 [7] [nM] | ΔTm [8] [°C] | EC50 [9] [nM] | EC50 [12] [nM] | ΔTm [13] [°C] | ΔTm [14] [°C] | EC50 [15] [nM] | ΔTm [16] [°C] | ΔTm [17] [°C] | Compound | Activity (HCT-116 [1]) | also measured |
| --- | --- | --- | --- | --- | --- | --- | --- | --- | --- | --- | --- | --- | --- |
| 49 | 20 | 20 | 9.1 | 249 | 251 | 16.7 | 8.7 | 48 | 15.3 | 13.7 | Cc1cccc(-c2ccc(-c3cc4cnc(Nc5ccc(CCCO)cc5)nc4n(CCCCN)c3=O)c(Cl)c2)n1 |  | Activity (HCT-116 [18]): Active |
| 85 | 115 |  | 5 | 3100 | 2100 | 11 | 4.6 | 1200 | 9.2 | 7.5 | COc1cc(N2CCOCC2)ccc1Nc1ncc2cc(-c3ccc(-c4cccc(C)n4)cc3Cl)c(=O)n(CCCCN)c2n1 |  |  |

More lines, now with the values behind:

| Compound | EC50 [5] [nM] | EC50 [6] [nM] | EC50 [7] [nM] | ΔTm [8] [°C] | EC50 [9] [nM] | EC50 [12] [nM] | ΔTm [13] [°C] | ΔTm [14] [°C] | EC50 [15] [nM] | ΔTm [16] [°C] | ΔTm [17] [°C] | Activity (HCT-116 [1]) | also measured |
| --- | --- | --- | --- | --- | --- | --- | --- | --- | --- | --- | --- | --- | --- |
| CC(=O)NC1CCN(c2ncnc3[nH]cc(-c4cccc(Cl)c4)c23)CC1 |  |  |  |  |  |  |  |  |  |  |  | inactive |  |
| N#Cc1cccc(-c2c[nH]c3ncnc(N4CCOCC4)c23)c1 |  |  |  |  |  |  |  |  |  |  |  | inactive | Activity (HCT-116 [2]): Dose-Dependent Effect; Activity (HCT-116 [3]): Active |
| CNC(=O)c1nn(C)c2c1C(C)(C)Cc1cnc(Nc3ccc(N4CCN(C)CC4)cc3)nc1-2 |  |  |  |  |  |  |  |  |  |  |  |  | Activity (HCT-116 [4]): Active |
| Cc1cccc(-c2ccc(-c3cc4cnc(NCCCN5CCCC5=O)nc4n(CCCCN)c3=O)c(Cl)c2)n1 | 1300 | 56 | 178 | 3.6 | 16900 | 15100 | 10.6 | 1.1 | 1100 | 7.5 | 2.2 | inactive | Activity (HCT-116 [10]): 30%; Activity (HCT-116 [4]): Active; Activity (HCT-116 [11]): Active |
| Cc1cccc(-c2ccc(-c3cc4cnc(NCCCN5CCOCC5)nc4n(CCCCN)c3=O)c(Cl)c2)n1 | 512 | 27 | 55 | 4.1 | 10200 | 5300 | 11.6 | 3.6 | 115 | 10.6 | 5.9 | inactive | Activity (HCT-116 [18]): Active; Activity (HCT-116 [19]): Active |
| Cc1cccc(-c2ccc(-c3cc4cnc(NC(CO)CO)nc4n(CCCCN)c3=O)c(Cl)c2)n1 | 7400 | 81 | 57 | 5.1 | > 50000 | > 50000 | 10.6 | 2.1 | 583 | 8.1 | 4.6 | inactive | EC50 [20]: 17600 nM; EC50 [21]: > 50000 nM; Activity (HCT-116 [22]): >90%; EC50 [23]: > 5000 nM; remaining at 1 h [24]: 90%; Activity (HCT-116 [10]): 30%; Activity (HCT-116 [4]): Active; Activity (HCT-116 [11]): Active |
| CCOc1cc2ncc(C#N)c(Nc3ccc(OCc4ccccn4)c(Cl)c3)c2cc1NC(=O)/C=C/CN(C)C [NERATINIB] |  |  |  |  |  |  |  |  |  |  |  |  | IC50 [25]: 7 nM; IC50 [26]: 7 nM |
| CCS(=O)(=O)Nc1ccc2c(c1)/C(=C(/Nc1ccc(CN3CCCCC3)cc1)c1ccccc1)C(=O)N2 [HESPERADIN] |  |  |  |  |  |  |  |  |  |  |  |  | IC50 [25]: 10 nM; IC50 [26]: 6 nM |
| CN1C(=O)c2sccc2N(C)c2nc(Nc3ccc(S(N)(=O)=O)cc3)ncc21 |  |  |  |  |  |  |  |  |  |  |  |  | IC50 [27]: 493 nM; IC50 [28]: 162 nM |
| CNc1ncc2cc(-c3ccc(-c4cccc(C)n4)cc3Cl)c(=O)n(CCCCN)c2n1 | 99 | 42 | 221 | 6.5 | 2600 | 4100 | 11.7 | 5.6 | 457 | 11.4 | 7.9 | inactive | EC50 [29]: 42 nM; Activity (HCT-116 [18]): Active; Activity (HCT-116 [19]): Active |
